Legend:
TIGK cells [1] = experiment: ATP assay (BAR, BAR-EFs); assay type: cell-based
Description: (§1) Telomerase immortalized gingival keratinocytes (TIGKs) were grown on 12-well collagen-coated plates (Becton Dickinson, Bedford, MA) and cultured using DermaLife K Calcium Free Medium (LifeFactors®) supplemented with penicillin/streptomycin (100 U/mL final concentration; St. Louis, MO), insulin (5 μg/mL), recombinant human (rh), L-glutamine (6 mM), apo-transferrin (5 μg/mL), epinephrine (1 μM), rh TGF-α (0.5 ng/mL), extract P™, calcium chloride (0.06 mM) and hydrocortisone hemisuccinate (100 ng/mL). The cells were incubated at 37° C. in the presence of 5% CO2 for 6 days until they reached 95% confluence.
ATP Assay: The metabolic activity of TIGK cells was assessed by measuring total ATP levels using the CellTiter-Glo reagent (Promega, Madison WI), as described by the manufacturer. TIGK cells were seeded at a density of 6×10^4 cells in 1 mL media per well and incubated at 37° C., 5% CO2 for 24 hr in a 12-well flat bottom plate. Cells were then incubated with BAR or 10:90 PLGA-PEO BAR-EFs (1.3 or 3.4 μM) for 24 hr at 37° C. in 5% CO2. Cells were then lysed with 500 μL of 0.1% Triton X-100 for 30 min at 37° C. The lysates were collected and centrifuged at 1,000×g for 10 min at 4° C., and 50 μL of supernatant was mixed with 50 μL of CellTiter-Glo reagent. […] Total luminescence was measured with a Victor 3 luminometer (Perkin-Elmer, Inc). […]

TIGK cells [2] = experiment: LDH assay (BAR NPs); assay type: cell-based; details: staurosporine, vs control or treated cells
Description: Cell membrane leakage was measured by the release of lactate dehydrogenase (LDH). Extracellular LDH was quantified using a CytoTox96® non-radioactive cytotoxicity assay (Promega, Madison WI) as described by the manufacturer. TIGK cells were plated at density of 6×10^4 cells in 1 mL media per well in a 12-well flat bottom plate, and incubated at 37° C., 5% CO2 for 24 hr. CafA-modified BAR NPs or unmodified BAR NPs (1.3 or 3.4 μM) were added to cells in triplicate for 24 hr at 37° C. in 5% CO2. Fifty microliters of supernatant from CafA-modified BAR NP- and unmodified BAR NP-treated (1.3 and 3.4 μM) cells were added to the LDH substrate and incubated at room temperature for 30 min. The reactions were subsequently terminated by adding 50 μL of stop solution. LDH activity was determined by measuring the optical density of the solution at 490 nm. Cells treated with staurosporine or with medium-only served as positive and negative controls for cell death, respectively.

TIGK cells [3] = experiment: ATP assay (BAR NPs); assay type: cell-based; details: 1 ng staurosporine, vs untreated and NP-treated cells
Description: Total ATP levels in cell culture were assessed by using the CellTiter-Glo reagent (Promega, Madison WI), as described by the manufacturer. TIGK cells were seeded at a density of 6×10^4 cells in 1 mL media per well and incubated at 37° C., 5% CO2 for 24 hr in a 12-well flat bottom plate. Cells were then incubated with CafA-modified BAR-NPs or unmodified BAR-NPs (1.3 or 3.4 μM) for 24 hr at 37° C. in 5% CO2. Cells were then lysed with 500 μL of 0.1% Triton X-100 for 30 min at 37° C. The lysates were collected and centrifuged at 1,000×g for 10 min at 4° C., and 50 μL of supernatant was mixed with 50 μL of CellTiter-Glo reagent. Samples were incubated at ambient temperature for 10 min in a black 96-well plate in the dark. Total luminescence was measured with a Victor 3 luminometer (Perkin-Elmer, Inc). Cells incubated with 1 ng of staurosporine or with medium-only served as positive and negative controls for cell death, respectively.

TIGK cells [4] = experiment: LDH assay (BAR, BAR-EFs); assay type: cell-based
Description: as §1
LDH Assay: Cell membrane leakage was measured by assessing the release of lactate dehydrogenase (LDH). Extracellular LDH was quantified using a CytoTox96® non-radioactive cytotoxicity assay (Promega, Madison WI) as described by the manufacturer. TIGK cells were plated at density of 6×10^4 cells in 1 mL media per well in a 12-well flat bottom plate, and incubated at 37° C., 5% CO2 for 24 hr. BAR or 10:90 PLGA-PEO BAR-EFs (1.3 or 3.4 μM) were added to cells in triplicate for 24 hr at 37° C. in 5% CO2. Fifty microliters of supernatant from free BAR and BAR-EF-treated (1.3 and 3.4 μM) cells were added to the LDH substrate and incubated at room temperature for 30 min. […] LDH activity was determined by measuring the optical density of the solution at 490 nm. […]

sheep erythrocytes = details: 1.3, 3.4 μM, 3 hr, relative to H2O-treated cells
Description: Hemolytic Assay: A sample of 250 μL of 1% sheep erythrocytes (Rockland Inc, Pennsylvania, USA) was suspended in sterile PBS. […] Water replaced PBS as a positive control for cell hemolysis. The suspension was incubated at 37° C. for 3 hr then centrifuged at 3,500×g. Hemoglobin released due to cell lysis was analyzed by measuring the absorbance at 541 nm.

[5] = tested on: P. gingivalis adherence to S. gordonii; details: cited from earlier work
TIGK cells [6] = experiment: Oxidative DNA damage (AP sites); assay type: cell-based; details: 1.3 or 3.4 μM, 24 hr
Description: as §1
Oxidative DNA Damage: Free radicals and other reactive species are generated from cells under stress and cause oxidative damage to biomolecules. DNA is the most targeted site of oxidative attack. […] OxiSelect™ Oxidative DNA Damage Quantitation Kit (Cell Biolabs, INC., San Diego, CA, USA) was used to quantify AP sites in cells treated with free BAR or 10:90 PLGA-PEO BAR-EFs (1.3 or 3.4 μM) as described by the manufacturer. […] AP sites were determined in genomic DNA by using a biotinylated aldehyde reactive probe (ARP) that reacts specifically with an aldehyde group of AP sites, followed by colorimetric detection using a streptavidin-enzyme conjugate (450 nm). The quantity of AP sites in DNA samples was determined by comparing the absorbance with standard curve of known amount of AP sites.

[7] = tested on: pre-established P. gingivalis-S. gordonii biofilms; experiment: Biofilm disruption assay; assay type: cell-based, P. gingivalis (ATCC 33277) / S. gordonii DL-1; details: 3.0 μM, 3 hr on 24 hr biofilms
Description: The resulting P. gingivalis S. gordonii biofilms were then treated for the maximum duration observed for free BAR to disrupt existing biofilms (3 hr). Established biofilms were administered BAR-EFs, free BAR or blank EFs at various concentrations in 1 mL PBS, and processed and analyzed as described above. The mean and standard deviation (SD) between samples were determined and the percent disruption of P. gingivalis adherence was calculated with the following formula: GR sample/GR control.

TIGK cells [8] = experiment: MTT assay (BAR, BAR-EFs); assay type: cell-based; details: 1.3 or 3.4 μM, 24 hr, relative to medium-only treated cells
Description: as §1
MTT Assay: TIGK cells were seeded in 12-well plates at a density of 6×10^4 cells in 1 mL media per well and incubated for 24 hr to allow for 60-70% confluency and sufficient adhesion. Cells were treated with 1.3 or 3.4 μM of BAR or 10:90 PLGA-PEO BAR-EFs. After 24 hr, 100 μL of MTT solution was added to the media of all samples. After 4 hr incubation at 37° C., 550 μL of lysis buffer was added to the media of each well and plates were incubated for overnight. The absorbance of each well was read at 570 nm, and the sample absorbance was normalized to the absorbance of medium-only treated cells. Cells were treated with 10% DMSO media (100 μL DMSO in 900 μL media) as a positive control for cell death.

[9] = tested on: P. gingivalis adherence to S. gordonii; details: 3.0 μM
Description: P. gingivalis (ATCC 33277) was grown in Trypticase soy broth (Difco Laboratories Inc., Livonia, MI, USA) supplemented with 0.5% (w/v) yeast extract, 1 μg/mL menadione, and 5 μg/mL hemin. The medium was reduced for 24 hr under anaerobic conditions (10% CO2, 10% H2, and 80% N2) and P. gingivalis was subsequently inoculated and grown anaerobically for 48 hr at 37° C. S. gordonii DL-1 was cultured aerobically without shaking in brain-heart infusion broth (Difco Laboratories Inc.) supplemented with 1% yeast extract for 16 hr at 37° C.
To assess the effectiveness of BAR-incorporated EFs to prevent the interaction of P. gingivalis with S. gordonii, S. gordonii was harvested from culture and labeled with 20 μL of 5 mg/mL hexidium iodide for 15 min at room temperature. Following incubation, cells were centrifuged to remove unbound fluorescent dye. The bacterial concentration was subsequently measured by the OD (600 nm) from twenty-fold diluted cultures of S. gordonii. […]
Plates containing P. gingivalis and S. gordonii were subsequently incubated for 24 hr at 37° C. in anaerobic conditions. […] Images were analyzed with Volocity image analysis software (version 6.3; Perkin Elmer, Waltham, MA, USA) to determine the ratio of green to red fluorescence (GR), representing P. gingivalis and S. gordonii, respectively. Control samples were used to subtract background levels of auto-fluorescence. […]

[10] = molecular target: T1, minor fimbriae (Mfal) of P. gingivalis (Porphyromonas gingivalis, UniProt B2RHG1 50-563); experiment: cell-based or functional assay
T1 sequence (looked up): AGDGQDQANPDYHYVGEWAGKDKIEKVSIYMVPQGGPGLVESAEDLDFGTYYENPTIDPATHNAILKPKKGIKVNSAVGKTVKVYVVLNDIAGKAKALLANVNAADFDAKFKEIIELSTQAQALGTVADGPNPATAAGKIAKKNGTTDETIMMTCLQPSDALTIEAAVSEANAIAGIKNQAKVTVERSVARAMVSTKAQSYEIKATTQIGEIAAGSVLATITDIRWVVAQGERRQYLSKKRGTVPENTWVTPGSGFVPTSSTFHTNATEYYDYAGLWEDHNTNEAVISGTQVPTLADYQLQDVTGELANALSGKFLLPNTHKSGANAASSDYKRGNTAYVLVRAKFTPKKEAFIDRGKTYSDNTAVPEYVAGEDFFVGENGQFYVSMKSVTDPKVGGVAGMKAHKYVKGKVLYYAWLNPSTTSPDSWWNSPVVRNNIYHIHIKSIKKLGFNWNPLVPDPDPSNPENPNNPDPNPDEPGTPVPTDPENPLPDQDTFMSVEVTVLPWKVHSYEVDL

## CN[C@@H]1C[C@H]2O[C@@](C)([C@@H]1OC)n1c3ccccc3c3c4c(c5c6ccccc6n2c5c31)C(=O)NC4 [Staurosporine, staurosporine, reference compound]
TIGK cells [1]; 1 ng staurosporine, vs medium-only, free BAR and BAR-EF treated cells
  ATP levels (positive control): significantly lower levels of ATP
TIGK cells [2]
  LDH activity released (positive control): significantly higher
TIGK cells [3]
  ATP levels (positive control): significantly lower levels of ATP
TIGK cells [4]; staurosporine, relative to medium-only, free BAR and BAR-EFs
  LDH released (positive control): significantly higher level of LDH

## H-LEAAPKKVQDLLKKANITVKGAFQLFS-OH [free BAR, NH2-LEA APK KVQ DLL KKA NIT VKG AFQ LFS-COOH]
Sheep erythrocytes
  Hemolytic activity: negligible hemolysis
TIGK cells [1]; 1.3 or 3.4 μM, 24 hr
  ATP levels relative to medium-only treated cells: no decrease in ATP
[5]; previously determined, read-out: previously determined IC50 of free BAR
  IC50: 1300 nM
[5]; used in in vitro and in vivo studies
  maximum effective concentration: 3.4 µM
TIGK cells [6]
  Number of AP sites relative to medium-only treated cells: no change in the number of AP sites
[7]
  Biofilm formation disrupted: 66%
TIGK cells [4]; 1.3 or 3.4 μM, 24 hr
  LDH released relative to medium-only treated cells: no change in levels of LDH
TIGK cells [8]
  TIGK cell viability (MTT): no loss in viability
[9]
  Biofilm formation inhibited: 81%

## LEAAPKKVQDLLKKANITVKGAFQLFS [BAR (SspB Adherence Region) peptide]
[10]
  IC50 of biofilm disruption, BAR-incorporated 10:90 PLGA:PEO EFs: 2 µM
  IC50 of inhibition of biofilm formation, BAR-incorporated 10:90 PLGA:PEO EFs: 1.3 µM
